Organism: Rattus norvegicus
Experiment: DrugMatrix - Regimen: Daily Repeat
Format: toxicity, organism-based, Sprague-Dawley
Design: regimen Daily Repeat, gender Male, age 6-8 weeks
Details: in vivo, iv, vehicle 100 % SALINE; for ABSOLUTE BASOPHIL / ABSOLUTE EOSINOPHIL / ABSOLUTE LYMPHOCYTE / ABSOLUTE MONOCYTE / ABSOLUTE SEGMENTED NEUTROPHIL / BASOPHIL / EOSINOPHIL / ERYTHROCYTE COUNT / HEMATOCRIT / HEMOGLOBIN / LEUKOCYTE COUNT / LYMPHOCYTE / MEAN CORPUSCULAR HEMOGLOBIN / MEAN CORPUSCULAR HEMOGLOBIN CONCENTRATION / MEAN CORPUSCULAR VOLUME / MONOCYTE / NEUTROPHIL / NUCLEATED RED BLOOD CELLS / PLATELET COUNT: tissue Blood; for ALANINE AMINOTRANSFERASE / ALBUMIN / ALKALINE PHOSPHATASE / ASPARTATE AMINOTRANSFERASE / BLOOD UREA NITROGEN / CARBON DIOXIDE / CHLORIDE / CHOLESTEROL / CREATINE PHOSPHOKINASE / CREATININE / GLUCOSE / LACTATE DEHYDROGENASE / LIPASE / PHOSPHORUS / POTASSIUM / SODIUM / TOTAL BILIRUBIN / TOTAL PROTEIN / URIC ACID: tissue Plasma
[1] = 200 mg/kg, 120 h, dose level Low, time 5 day
[2] = 800 mg/kg, 72 h, dose level High, time 3 day
[3] = 800 mg/kg, 120 h, dose level High, time 5 day

`CC1(C)S[C@@H]2[C@H](NC(=O)[C@H](NC(=O)N3CCNC3=O)c3ccccc3)C(=O)N2[C@H]1C(=O)O` [AZLOCILLIN] was tested, and the “ABSOLUTE BASOPHIL” value [1] was 0 CELLS/uL, the “ABSOLUTE EOSINOPHIL” value [1] was 0 CELLS/uL and the “ABSOLUTE LYMPHOCYTE” value [1] was 10606.67 CELLS/uL. For the same compound, the “ABSOLUTE MONOCYTE” value [1] was 46.67 CELLS/uL, the “ABSOLUTE SEGMENTED NEUTROPHIL” value [1] was 980 CELLS/uL and the BASOPHIL [1] was 0%. The EOSINOPHIL [1] was 0%, the “ERYTHROCYTE COUNT” value [1] was 5.98 x10E6/uL and the HEMATOCRIT [1] was 35.9%. For the same compound, the HEMOGLOBIN [1] was 14.17 G/DL, the “LEUKOCYTE COUNT” value [1] was 11.63 x10E3/uL and the LYMPHOCYTE [1] was 91.33%. The “MEAN CORPUSCULAR HEMOGLOBIN” value [1] was 23.7 pg, the “MEAN CORPUSCULAR HEMOGLOBIN CONCENTRATION” value [1] was 39.5 G/DL and the “MEAN CORPUSCULAR VOLUME” value [1] was 60.07 fL. The MONOCYTE [1] was 0.33%, the NEUTROPHIL [1] was 8.33% and the “NUCLEATED RED BLOOD CELLS” value [1] was 0.33 /100WBC. For the same compound, the “PLATELET COUNT” value [1] was 1262 x10E3/uL, the “ALANINE AMINOTRANSFERASE” value [1] was 76 u/L and the ALBUMIN [1] was 4.17 G/DL. For the same compound, the “ALKALINE PHOSPHATASE” value [1] was 302.33 u/L, the “ASPARTATE AMINOTRANSFERASE” value [1] was 91.67 u/L and the “BLOOD UREA NITROGEN” value [1] was 17.67 mg/dL. The “CARBON DIOXIDE” value [1] was 25.67 mmol/L, the CHLORIDE [1] was 101 MEQ/L and the CHOLESTEROL [1] was 73 mg/dL. For the same compound, the “CREATINE PHOSPHOKINASE” value [1] was 333.33 u/L, the CREATININE [1] was 0.19 mg/dL and the GLUCOSE [1] was 172.67 mg/dL. For the same compound, the “LACTATE DEHYDROGENASE” value [1] was 301 u/L, the LIPASE [1] was 9.33 u/L and the PHOSPHORUS [1] was 11.1 mg/dL. For the same compound, the POTASSIUM [1] was 5.74 MEQ/L, the SODIUM [1] was 144.37 MEQ/L and the “TOTAL BILIRUBIN” value [1] was 0.13 mg/dL. The “TOTAL PROTEIN” value [1] was 6.33 G/DL, the “URIC ACID” value [1] was 1.6 mg/dL and the “ABSOLUTE BASOPHIL” value [2] was 0 CELLS/uL. The “ABSOLUTE EOSINOPHIL” value [2] was 64.67 CELLS/uL, the “ABSOLUTE LYMPHOCYTE” value [2] was 11014.33 CELLS/uL and the “ABSOLUTE MONOCYTE” value [2] was 68.67 CELLS/uL. For the same compound, the “ABSOLUTE SEGMENTED NEUTROPHIL” value [2] was 1119 CELLS/uL, the BASOPHIL [2] was 0% and the EOSINOPHIL [2] was 0.33%. The “ERYTHROCYTE COUNT” value [2] was 5.5 x10E6/uL, the HEMATOCRIT [2] was 34.53% and the HEMOGLOBIN [2] was 13.63 G/DL. For the same compound, the “LEUKOCYTE COUNT” value [2] was 12.27 x10E3/uL, the LYMPHOCYTE [2] was 90.67% and the “MEAN CORPUSCULAR HEMOGLOBIN” value [2] was 24.87 pg. The “MEAN CORPUSCULAR HEMOGLOBIN CONCENTRATION” value [2] was 39.5 G/DL, the “MEAN CORPUSCULAR VOLUME” value [2] was 62.9 fL and the MONOCYTE [2] was 0.67%. For the same compound, the NEUTROPHIL [2] was 8.33%, the “NUCLEATED RED BLOOD CELLS” value [2] was 0 /100WBC and the “PLATELET COUNT” value [2] was 1200 x10E3/uL. For the same compound, the “ALANINE AMINOTRANSFERASE” value [2] was 47.33 u/L, the ALBUMIN [2] was 4.13 G/DL and the “ALKALINE PHOSPHATASE” value [2] was 350 u/L. For the same compound, the “ASPARTATE AMINOTRANSFERASE” value [2] was 79.33 u/L, the “BLOOD UREA NITROGEN” value [2] was 15.67 mg/dL and the “CARBON DIOXIDE” value [2] was 32.67 mmol/L. The CHLORIDE [2] was 98.33 MEQ/L, the CHOLESTEROL [2] was 83 mg/dL and the “CREATINE PHOSPHOKINASE” value [2] was 313.33 u/L. The CREATININE [2] was 0.15 mg/dL, the GLUCOSE [2] was 135.67 mg/dL and the “LACTATE DEHYDROGENASE” value [2] was 118 u/L. The LIPASE [2] was 9.67 u/L, the PHOSPHORUS [2] was 10.5 mg/dL and the POTASSIUM [2] was 6.4 MEQ/L. For the same compound, the SODIUM [2] was 143.1 MEQ/L, the “TOTAL BILIRUBIN” value [2] was 0.23 mg/dL and the “TOTAL PROTEIN” value [2] was 5.9 G/DL. The “URIC ACID” value [2] was 1.33 mg/dL, the “ABSOLUTE BASOPHIL” value [3] was 0 CELLS/uL and the “ABSOLUTE EOSINOPHIL” value [3] was 0 CELLS/uL. For the same compound, the “ABSOLUTE LYMPHOCYTE” value [3] was 11750 CELLS/uL, the “ABSOLUTE MONOCYTE” value [3] was 375 CELLS/uL and the “ABSOLUTE SEGMENTED NEUTROPHIL” value [3] was 375 CELLS/uL. The BASOPHIL [3] was 0%, the EOSINOPHIL [3] was 0% and the “ERYTHROCYTE COUNT” value [3] was 6.36 x10E6/uL. The HEMATOCRIT [3] was 36.8%, the HEMOGLOBIN [3] was 14.2 G/DL and the “LEUKOCYTE COUNT” value [3] was 12.5 x10E3/uL. The LYMPHOCYTE [3] was 94%, the “MEAN CORPUSCULAR HEMOGLOBIN” value [3] was 22.3 pg and the “MEAN CORPUSCULAR HEMOGLOBIN CONCENTRATION” value [3] was 38.6 G/DL. The “MEAN CORPUSCULAR VOLUME” value [3] was 57.9 fL, the MONOCYTE [3] was 3% and the NEUTROPHIL [3] was 3%. For the same compound, the “NUCLEATED RED BLOOD CELLS” value [3] was 0 /100WBC, the “PLATELET COUNT” value [3] was 1139 x10E3/uL and the “ALANINE AMINOTRANSFERASE” value [3] was 42 u/L. For the same compound, the ALBUMIN [3] was 3.7 G/DL, the “ALKALINE PHOSPHATASE” value [3] was 225 u/L and the “ASPARTATE AMINOTRANSFERASE” value [3] was 68 u/L. The “BLOOD UREA NITROGEN” value [3] was 22 mg/dL, the “CARBON DIOXIDE” value [3] was 25 mmol/L and the CHLORIDE [3] was 102 MEQ/L. For the same compound, the CHOLESTEROL [3] was 82 mg/dL, the “CREATINE PHOSPHOKINASE” value [3] was 168 u/L and the CREATININE [3] was 0.27 mg/dL. For the same compound, the GLUCOSE [3] was 198 mg/dL, the “LACTATE DEHYDROGENASE” value [3] was 104 u/L and the LIPASE [3] was 9 u/L. The PHOSPHORUS [3] was 10.1 mg/dL, the POTASSIUM [3] was 5.6 MEQ/L and the SODIUM [3] was 144.4 MEQ/L. For the same compound, the “TOTAL BILIRUBIN” value [3] was 0.2 mg/dL, the “TOTAL PROTEIN” value [3] was 6.1 G/DL and the “URIC ACID” value [3] was 2.2 mg/dL.
